Measurements: the OligoGym collection
HELM strings list units from the 5' end as sugar, base in round brackets, then linkage (d deoxyribose, r ribose, m 2'-O-methyl, p phosphodiester). Strings are as the collection lists them; they lack the last nucleoside at the 3' end of the tested compound. [moe] = 2'-O-(2-methoxyethyl) (MOE); [sp] = phosphorothioate linkage; [m5C] = 5-methylcytosine

What follows are substances tested against UBE3A-ATS (assay: mouse, dose not given). Details: ASO.

Row | Substance | 3 h FOB score [score 0-7]
1 | RNA1{[moe](T)[sp].[moe](A)p.[moe](A)p.[moe]([m5C])p.[moe](T)p.d(G)[sp].d([m5C])[sp].d(T)[sp].d(T)[sp].d([m5C])[sp].d(A)[sp].d([m5C])[sp].d([m5C])[sp].d(A)[sp].d(T)[sp].[moe](T)p.[moe](T)p.[moe](T)[sp].[moe](G)}$$$$ (last 3' nucleoside missing) | 0
2 | RNA1{[moe](T)[sp].[moe](A)p.[moe](G)p.[moe](A)p.[moe](T)p.d(T)[sp].d(G)[sp].d(G)[sp].d(G)[sp].d([m5C])[sp].d(T)[sp].d(T)[sp].d(T)[sp].d(A)[sp].d(G)[sp].[moe](A)p.[moe](G)p.[moe](G)[sp].[moe](T)}$$$$ (last 3' nucleoside missing) | 5
3 | RNA1{[moe](T)[sp].[moe](A)p.[moe](G)p.[moe](G)p.[moe](G)p.d(T)[sp].d(G)[sp].d(G)[sp].d(T)[sp].d(T)[sp].d(G)[sp].d(G)[sp].d(T)[sp].d(T)[sp].d([m5C])[sp].[moe](A)p.[moe](A)p.[moe](A)[sp].[moe](A)}$$$$ (last 3' nucleoside missing) | 5.7
4 | RNA1{[moe](T)[sp].[moe](A)p.[moe](G)p.[moe](G)p.[moe](T)p.[moe]([m5C])p.d(A)[sp].d(A)[sp].d([m5C])[sp].d([m5C])[sp].d(A)[sp].d(A)[sp].d(T)[sp].d(T)[sp].d(T)[sp].d(G)[sp].[moe]([m5C])p.[moe](T)[sp].[moe](A)}$$$$ (last 3' nucleoside missing) | 5
5 | RNA1{[moe](T)[sp].[moe](A)p.[moe](G)p.[moe](G)p.[moe](T)p.d([m5C])[sp].d(A)[sp].d(A)[sp].d([m5C])[sp].d([m5C])[sp].d(A)[sp].d(A)[sp].d(T)[sp].d(T)[sp].d(T)[sp].[moe](G)p.[moe]([m5C])p.[moe](T)[sp].[moe](A)}$$$$ (last 3' nucleoside missing) | 0
6 | RNA1{[moe](T)[sp].[moe](A)p.[moe](G)p.[moe](G)p.[moe]([m5C])p.d(T)[sp].d(G)[sp].d(G)[sp].d(G)[sp].d([m5C])[sp].d([m5C])[sp].d(T)[sp].d([m5C])[sp].d(A)[sp].d(G)[sp].[moe]([m5C])p.[moe](G)p.[moe](T)[sp].[moe](A)}$$$$ (last 3' nucleoside missing) | 3.5
7 | RNA1{[moe](T)[sp].[moe](A)p.[moe](G)p.[moe](G)p.d(T)[sp].d([m5C])[sp].d(A)[sp].d(A)[sp].d([m5C])[sp].d([m5C])[sp].d(A)[sp].d(A)[sp].d(T)[sp].d(T)[sp].[moe](T)p.[moe](G)p.[moe]([m5C])p.[moe](T)[sp].[moe](A)}$$$$ (last 3' nucleoside missing) | 0
8 | RNA1{[moe](T)[sp].[moe](A)p.[moe](G)p.[moe](T)p.[moe](T)p.d(T)[sp].d([m5C])[sp].d(A)[sp].d([m5C])[sp].d([m5C])[sp].d(G)[sp].d(A)[sp].d(A)[sp].d(A)[sp].d(G)[sp].[moe](T)p.[moe](A)p.[moe]([m5C])[sp].[moe](A)}$$$$ (last 3' nucleoside missing) | 2.5
9 | RNA1{[moe](T)[sp].[moe](A)p.[moe](G)p.[moe](T)p.[moe]([m5C])p.d(T)[sp].d(A)[sp].d(A)[sp].d(G)[sp].d(G)[sp].d([m5C])[sp].d(A)[sp].d(G)[sp].d(T)[sp].d([m5C])[sp].[moe](A)p.[moe](G)p.[moe](G)[sp].[moe](G)}$$$$ (last 3' nucleoside missing) | 6
10 | RNA1{[moe](T)[sp].[moe](A)p.[moe](T)p.[moe](A)p.[moe](G)p.d(G)[sp].d(G)[sp].d(T)[sp].d(G)[sp].d(G)[sp].d(T)[sp].d(T)[sp].d(G)[sp].d(G)[sp].d(T)[sp].[moe](T)p.[moe]([m5C])p.[moe](A)[sp].[moe](A)}$$$$ (last 3' nucleoside missing) | 6
11 | RNA1{[moe](T)[sp].[moe](A)p.[moe](T)p.[moe](G)p.[moe](T)p.d(A)[sp].d(G)[sp].d([m5C])[sp].d(T)[sp].d([m5C])[sp].d(A)[sp].d(G)[sp].d([m5C])[sp].d(T)[sp].d([m5C])[sp].[moe](A)p.[moe](A)p.[moe](T)[sp].[moe](G)}$$$$ (last 3' nucleoside missing) | 1
12 | RNA1{[moe](T)[sp].[moe](A)p.[moe](T)p.[moe](T)p.[moe](G)p.[moe](G)p.d(T)[sp].d([m5C])[sp].d(A)[sp].d(T)[sp].d([m5C])[sp].d(T)[sp].d([m5C])[sp].d(G)[sp].d(G)[sp].d(G)[sp].[moe](T)p.[moe](A)[sp].[moe](T)}$$$$ (last 3' nucleoside missing) | 4
13 | RNA1{[moe](T)[sp].[moe](A)p.[moe](T)p.[moe](T)p.[moe](G)p.d(G)[sp].d(T)[sp].d([m5C])[sp].d(A)[sp].d(T)[sp].d([m5C])[sp].d(T)[sp].d([m5C])[sp].d(G)[sp].d(G)[sp].[moe](G)p.[moe](T)p.[moe](A)[sp].[moe](T)}$$$$ (last 3' nucleoside missing) | 3.3
14 | RNA1{[moe](T)[sp].[moe](A)p.[moe](T)p.[moe](T)p.[moe](G)p.d([m5C])[sp].d([m5C])[sp].d(T)[sp].d(T)[sp].d([m5C])[sp].d(A)[sp].d([m5C])[sp].d(T)[sp].d(G)[sp].d([m5C])[sp].[moe](T)p.[moe](G)p.[moe]([m5C])[sp].[moe]([m5C])}$$$$ (last 3' nucleoside missing) | 3.2
15 | RNA1{[moe](T)[sp].[moe](A)p.[moe](T)p.[moe](T)p.d(G)[sp].d(G)[sp].d(T)[sp].d([m5C])[sp].d(A)[sp].d(T)[sp].d([m5C])[sp].d(T)[sp].d([m5C])[sp].d(G)[sp].[moe](G)p.[moe](G)p.[moe](T)p.[moe](A)[sp].[moe](T)}$$$$ (last 3' nucleoside missing) | 4
16 | RNA1{[moe](T)[sp].[moe](G)[sp].[moe]([m5C])[sp].[moe]([m5C])[sp].[moe](A)[sp].d(T)[sp].d([m5C])[sp].d(T)[sp].d(T)[sp].d([m5C])[sp].d(A)[sp].d(A)[sp].d(G)[sp].d(A)[sp].d([m5C])[sp].[moe](T)[sp].[moe](A)[sp].[moe](A)[sp].[moe](G)}$$$$ (last 3' nucleoside missing) | 6.8
17 | RNA1{[moe](T)[sp].[moe](G)p.[moe](A)p.[moe](G)[sp].d([m5C])[sp].d(T)[sp].d(A)[sp].d(T)[sp].d([m5C])[sp].d(T)[sp].d(G)[sp].d(T)[sp].[moe](A)p.[moe]([m5C])p.[moe](A)p.[moe](A)[sp].[moe](A)}$$$$ (last 3' nucleoside missing) | 3
18 | RNA1{[moe](T)[sp].[moe](G)p.[moe](A)p.[moe](G)p.[moe]([m5C])[sp].d(T)[sp].d(A)[sp].d(T)[sp].d([m5C])[sp].d(T)[sp].d(G)[sp].d(T)[sp].d(A)[sp].[moe]([m5C])p.[moe](A)p.[moe](A)[sp].[moe](A)}$$$$ (last 3' nucleoside missing) | 4.7
19 | RNA1{[moe](T)[sp].[moe](G)p.[moe](A)p.[moe](G)p.[moe]([m5C])p.[moe](T)[sp].d(A)[sp].d(T)[sp].d([m5C])[sp].d(T)[sp].d(G)[sp].d(T)[sp].d(A)[sp].d([m5C])[sp].[moe](A)p.[moe](A)[sp].[moe](A)}$$$$ (last 3' nucleoside missing) | 5
